According to patent publication US11931451B2, “Skin lightening compounds from fruit seed extracts” (WiSys Technology Foundation, Inc., priority 2016, dated 2024):

Assays:
[1] = Solubility of extracts and reference compounds in solvents / assay medium; format: physicochemical
From the text: A 2.5 gram sample of a red raspberry seed extract in a dry powder form was split into two fractions, one combined 1.25 grams of the dry extract with 11.25 grams of water to create a 10% aqueous solution of the extract. […] Combining 1.25 grams of the dry extract with about 11.25 grams of Isopropyl alcohol (91%) produced an about 10% alcohol solution.
Using pure water was explored in extraction experiments with cranberry seed powder. The advantages of using water were essentially zero cost and toxicity. […] The limitations of using water were that it gave quite low yields in extractions at room temperature and only dissolved the most polar compounds from the seed powders, leaving most of the medium polarity materials behind. It is possible that this could be improved by heating. […] Simply filtering the mixture through inexpensive filter paper by gravity or mild vacuum was unsuccessful. One solution that worked was mixing in filtering media (diatomaceous earth) and then vacuum filtering through a bed of the same filtering medium. To completely clarify the mixture, an additional treatment with activated carbon and further vacuum filtering through a bed of diatomaceous earth was effective. Given the limitations of water extraction, it was not used extensively. One exception was the use of sodium hydroxide solutions in water to extract pomegranate seed powder, which contained significant amounts of the targeted compound ellagic acid. […] Therefore, 1 M aqueous sodium hydroxide solution was used to extract this material from pomegranate seed powder. After filtering away the solid seed material the solution was acidified to pH=4 by addition of 1 N HCl. A small amount of solid developed, which was filtered with some difficulties.
The extracts in Tables 2 and 3, prepared from 70:30 methanol/water, were tested for their ability to inhibit tyrosinase at concentrations of 1.0 mg/mL, 0.1 mg/mL, 0.01 mg/mL, and in some cases 0.001 mg/mL. For comparison several other known tyrosinase inhibitors including kojic acid, alpha-arbutin, beta-arbutin, hydroquinone, and quercetin were tested. Kojic acid is often used in tyrosinase inhibition studies as a benchmark inhibitor for comparison with other inhibitors. I included beta-arbutin and hydroquinone due to their relevance in skin whitening applications. Additionally, several commercial skin whitening agents were also tested. These included a product called Radian Skin from BASF, and an arbutin material sold by the company Presperse. […] Even highly dilute samples of ellagic acid were not sufficiently soluble. […] Finally, a mixture of red raspberry and tomato extracts (FIG. 10) was tested to look for possible synergistic effects in mixtures on two quite different materials. […]

[2] = system: tyrosinase enzyme (from mushroom); assay: Tyrosinase inhibition assay (L-DOPA to dopachrome, absorbance at 475 nm); format: biochemical; conditions: 0.001-1 mg/mL, FIGS. 11-12
Procedure: Extracts were tested for their ability to inhibit the enzyme tyrosinase. This enzyme catalyzes the air oxidation of L-DOPA (colorless) to the compound dopachrome, which is a highly colored intermediate in the production of melanin. The dopachrome molecule absorbs strongly at 475 nm. So, measuring the rate of change of absorption at this wavelength using UV/visible spectroscopy can easily assess the enzyme's activity. The tyrosinase enzyme (from mushroom) was purchased from Sigma-Aldrich as a lyophilized powder with an activity of 5771 units per mg of solid (a unit of activity is defined as the rate at which the enzyme catalyzes the reaction of a standard substrate at a standard concentration). […] Next, the enzyme solution was added (500 μL), the cuvette was covered with a piece of Parafilm and inverted twice to thoroughly mix the solutions, and immediately after the cuvette was placed in a UV/visible spectrometer and absorbance was measured at 475 nm every second for 60 seconds. The slope of the line formed by graphing change in absorbance versus time gave the rate in units of AA/second. […] Percentage inhibition values were calculated by taking the rate of the blank run with no inhibitor minus the rate of the inhibited sample and then dividing that value by the blank rate and multiplying by 100. […]

Compound | solubility (medium not stated) [1] | solubility in water ([1]; high pH) | solubility in water ([1]; neutral pH) | solubility in the enzyme assay ([1]; tyrosinase assay medium) | tyrosinase inhibition strength (in words, from dose-response curves) [2]
O=c1oc2c(O)c(O)cc3c(=O)oc4c(O)c(O)cc1c4c23 [ellagic acid] | highly insoluble | very water soluble | only slightly soluble | highly insoluble | –
O=c1cc(CO)occ1O [kojic acid] | – | – | – | – | strongest inhibitor
O=c1c(O)c(-c2ccc(O)c(O)c2)oc2cc(O)cc(O)c12 [quercetin] | – | – | – | – | considerably more potent than the others
